Laboratory results from US9347934B2, “Assays for identifying compounds that modulate bitter taste” (CHROMOCELL CORPORATION, priority 2011, dated 2016).

Columns and labels:
Assay type in all cases: cell-based
TAS2R14 = biological target: T1, TAS2R14 (Homo sapiens, UniProt Q9NYV8); assay: Calcium fluorescence functional assay, TAS2R14 cell line; conditions: for TAS2R14 bitter taste receptor activity (changes in intracellular calcium): 20 mM tastant, cell line expressing human TAS2R14 and mouse Gα15
T1 construct: expressed in transfected cells
T1 sequence (Q9NYV8 1-317): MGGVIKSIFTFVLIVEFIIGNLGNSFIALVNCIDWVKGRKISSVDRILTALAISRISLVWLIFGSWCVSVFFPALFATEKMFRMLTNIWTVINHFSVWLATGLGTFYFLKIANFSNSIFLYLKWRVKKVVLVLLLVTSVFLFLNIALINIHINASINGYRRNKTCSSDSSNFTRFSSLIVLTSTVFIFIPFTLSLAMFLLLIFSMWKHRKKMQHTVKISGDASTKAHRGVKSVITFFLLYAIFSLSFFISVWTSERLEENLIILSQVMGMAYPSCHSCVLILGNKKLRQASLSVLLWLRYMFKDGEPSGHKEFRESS
Protocol: (§1) Accordingly, each cell line of the panel expressed a human bitter taste receptor and mouse Gα15 signaling protein.
(§2) Probenecid was not included in the load solution.
(§3) After dye loading, cell plates were placed in a fluorescent plate reader (e.g., FDSS6000 (Hamamatsu, Japan)) and receptor stimulation was measured by adding 50 ul of 3× concentrated ligand/agonist stock. Fluorescence was monitored continuously for 10 s before agonist addition and for 100-250 s after stimulation with agonist.
(§4) Receptor Activation is defined as follows: % Activation=[((Maximum signal fluorescence−Minimum signal fluorescence)−(Maximum control fluorescence−Minimum control fluorescence))/(Maximum buffer fluorescence−Minimum buffer fluorescence)]*100 Functional Response=[(Maximum signal fluorescence−Minimum signal fluorescence)−(Maximum control fluorescence−Minimum control fluorescence)] • Signal Fluorescence: refers to the change in fluorescence seen with addition of ligand • Control fluorescence: refers to the change in fluorescence seen with addition of buffer (negative control) • Calcium signals from ligand and control were normalized to the basal fluorescence of the cells prior to the stimulation.
(§5) A concentration analysis was performed and EC50 values were calculated by nonlinear regression using the formula: Y=Bottom+(Top-Bottom)/(1+10^((Log EC50-X)*Hill Slope)), X=log of dose or concentration, Y=Response (increasing as X increases), Top=maximum signal, Bottom=minimum signal.

TAS2R3 = biological target: T2, TAS2R3 (Homo sapiens, UniProt Q9NYW6); assay: Calcium fluorescence functional assay, TAS2R3 cell line; conditions: 20 mM tastant; cell line expressing human TAS2R3 and mouse Gα15
T2 construct: expressed in transfected cells
T2 sequence (Q9NYW6 1-316): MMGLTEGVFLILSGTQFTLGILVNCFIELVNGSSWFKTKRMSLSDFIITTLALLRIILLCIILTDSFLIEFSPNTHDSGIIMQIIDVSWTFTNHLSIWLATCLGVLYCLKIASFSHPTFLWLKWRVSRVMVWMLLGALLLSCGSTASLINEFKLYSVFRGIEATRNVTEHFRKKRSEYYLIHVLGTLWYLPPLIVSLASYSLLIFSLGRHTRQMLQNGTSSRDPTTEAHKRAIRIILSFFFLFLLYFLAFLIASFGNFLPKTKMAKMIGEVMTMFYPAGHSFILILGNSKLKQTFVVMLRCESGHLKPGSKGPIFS
Protocol: as §1, §2, §3, §4, §5

TAS2R39 = biological target: T3, TAS2R39 (Homo sapiens, UniProt P59534); assay: Calcium fluorescence functional assay, TAS2R39 cell line; conditions: 20 mM tastant; cell line expressing human TAS2R39 and mouse Gα15
T3 construct: expressed in transfected cells
T3 sequence (P59534 1-338): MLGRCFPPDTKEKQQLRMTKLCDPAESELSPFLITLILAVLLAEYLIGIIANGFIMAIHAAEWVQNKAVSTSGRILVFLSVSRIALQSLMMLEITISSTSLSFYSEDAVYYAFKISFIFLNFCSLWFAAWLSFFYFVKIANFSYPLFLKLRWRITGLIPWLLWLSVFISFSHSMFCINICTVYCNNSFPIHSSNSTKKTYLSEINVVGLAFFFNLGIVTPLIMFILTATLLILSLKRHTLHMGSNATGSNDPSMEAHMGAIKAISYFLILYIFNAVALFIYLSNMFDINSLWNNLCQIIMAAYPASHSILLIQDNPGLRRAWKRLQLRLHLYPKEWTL
Protocol: as §1, §2, §3, §4, §5

TAS2R38 = biological target: T4, TAS2R38 (Homo sapiens, UniProt P59533); assay: Calcium fluorescence functional assay, TAS2R38 cell line; conditions: 20 mM tastant; cell line expressing human TAS2R38 and mouse Gα15
T4 construct: expressed in transfected cells
T4 sequence (P59533 1-333): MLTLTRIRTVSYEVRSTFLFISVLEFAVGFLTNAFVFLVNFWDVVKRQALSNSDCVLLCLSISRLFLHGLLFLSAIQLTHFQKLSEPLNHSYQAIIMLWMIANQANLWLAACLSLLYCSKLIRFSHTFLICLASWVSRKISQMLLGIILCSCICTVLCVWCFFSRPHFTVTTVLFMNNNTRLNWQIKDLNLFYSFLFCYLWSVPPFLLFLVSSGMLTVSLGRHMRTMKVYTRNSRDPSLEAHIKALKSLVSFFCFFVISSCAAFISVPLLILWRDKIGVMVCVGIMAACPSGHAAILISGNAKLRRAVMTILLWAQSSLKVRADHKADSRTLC
Protocol: as §1, §2, §3, §4, §5

TAS2R1 = biological target: T5, TAS2R1 (Homo sapiens, UniProt Q9NYW7); assay: Calcium fluorescence functional assay, TAS2R1 cell line; conditions: 20 mM tastant; cell line expressing human TAS2R1 and mouse Gα15
T5 construct: expressed in transfected cells
T5 sequence (Q9NYW7 1-299): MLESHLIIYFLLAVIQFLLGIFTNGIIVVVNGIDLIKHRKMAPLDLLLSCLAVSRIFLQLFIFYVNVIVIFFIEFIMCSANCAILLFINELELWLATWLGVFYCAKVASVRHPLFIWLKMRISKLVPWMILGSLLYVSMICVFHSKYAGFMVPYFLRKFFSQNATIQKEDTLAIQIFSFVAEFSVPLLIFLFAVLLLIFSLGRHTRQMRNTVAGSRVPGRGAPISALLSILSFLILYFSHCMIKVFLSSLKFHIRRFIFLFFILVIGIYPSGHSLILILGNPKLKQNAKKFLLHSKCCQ
Protocol: as §1, §2, §3, §4, §5

TAS2R47 = biological target: T6, TAS2R47 (Homo sapiens, UniProt P59541); assay: Calcium fluorescence functional assay, TAS2R47 cell line; conditions: 20 mM tastant; cell line expressing human TAS2R47 and mouse Gα15
T6 construct: expressed in transfected cells
T6 sequence (P59541 1-319): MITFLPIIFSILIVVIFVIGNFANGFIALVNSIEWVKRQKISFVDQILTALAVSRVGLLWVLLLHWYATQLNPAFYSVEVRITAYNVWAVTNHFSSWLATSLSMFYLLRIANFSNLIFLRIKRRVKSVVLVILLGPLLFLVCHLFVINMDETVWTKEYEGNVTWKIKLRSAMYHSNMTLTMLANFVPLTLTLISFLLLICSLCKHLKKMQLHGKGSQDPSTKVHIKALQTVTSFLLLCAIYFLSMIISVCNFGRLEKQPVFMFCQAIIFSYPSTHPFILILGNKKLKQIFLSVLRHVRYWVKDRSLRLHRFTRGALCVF
Protocol: as §1, §2, §3, §4, §5

In the case of `CC1=CC(=O)NS(=O)(=O)O1` [Acesulfame K], the “TAS2R14 bitter taste receptor activity (changes in intracellular calcium)” value (TAS2R14) is reported as “induced”, the “TAS2R3 bitter taste receptor activity (changes in intracellular calcium)” value (TAS2R3) is reported as “did not induce” and the “TAS2R39 bitter taste receptor activity (changes in intracellular calcium)” value (TAS2R39) is reported as “did not induce”. The “TAS2R38 bitter taste receptor activity (changes in intracellular calcium)” value (TAS2R38) was “did not induce”, the “TAS2R1 bitter taste receptor activity (changes in intracellular calcium)” value (TAS2R1) was “induced” and the “TAS2R47 bitter taste receptor activity (changes in intracellular calcium)” value (TAS2R47) was “did not induce”.

For `[Cl-].[K+]` [KCl, potassium chloride], the “TAS2R14 bitter taste receptor activity (changes in intracellular calcium)” value (TAS2R14) was “induced”, the EC50 (TAS2R14; increasing concentrations of KCl, TAS2R14 cell line (FIG. 3), read-out: EC50 value, activation of TAS2R14) was 5 to 15 mM and the “TAS2R3 bitter taste receptor activity (changes in intracellular calcium)” value (TAS2R3) was “did not induce”. For the same compound, the “TAS2R39 bitter taste receptor activity (changes in intracellular calcium)” value (TAS2R39) was “did not induce”, the “TAS2R38 bitter taste receptor activity (changes in intracellular calcium)” value (TAS2R38) was “did not induce” and the “TAS2R1 bitter taste receptor activity (changes in intracellular calcium)” value (TAS2R1) was “did not induce”. The “TAS2R47 bitter taste receptor activity (changes in intracellular calcium)” value (TAS2R47) was “did not induce”.

`CC(O)C(=O)[O-].[K+]` (stereo not shown) [Potassium lactate, potassium lactate] was tested, and the “TAS2R14 bitter taste receptor activity (changes in intracellular calcium)” value (TAS2R14) was “induced”, the “TAS2R3 bitter taste receptor activity (changes in intracellular calcium)” value (TAS2R3) was “did not induce” and the “TAS2R39 bitter taste receptor activity (changes in intracellular calcium)” value (TAS2R39) was “did not induce”. The “TAS2R38 bitter taste receptor activity (changes in intracellular calcium)” value (TAS2R38) was “did not induce”, the “TAS2R1 bitter taste receptor activity (changes in intracellular calcium)” value (TAS2R1) was “did not induce” and the “TAS2R47 bitter taste receptor activity (changes in intracellular calcium)” value (TAS2R47) was “did not induce”.
